From patent publication US20180008587A1, “THIOHYDANTOIN ANDROGEN RECEPTOR ANTAGONISTS FOR THE TREATMENT OF CANCER” (Jaressen Pharmaceutica NV, priority 2016, published 2018)
Substitutions are numbered along the chain they refer to. “And” between values parts separate entries of the source, which are not always exact repeats. Equal values may be shown once. Read-outs that look alike come from different tables or passages of the source.

Tests used:
AR-VP16 = biological target: T1, AR-VP16 (Homo sapiens, UniProt P10275); assay: AR-VP16 DNA binding assay, HepG2; assay type: cell-based; conditions: HepG2, antagonist mode, 90 pM R1881, 48 hours; read-out: IC50 VP16 WT
T1 sequence (P10275 560-920 limits assumed): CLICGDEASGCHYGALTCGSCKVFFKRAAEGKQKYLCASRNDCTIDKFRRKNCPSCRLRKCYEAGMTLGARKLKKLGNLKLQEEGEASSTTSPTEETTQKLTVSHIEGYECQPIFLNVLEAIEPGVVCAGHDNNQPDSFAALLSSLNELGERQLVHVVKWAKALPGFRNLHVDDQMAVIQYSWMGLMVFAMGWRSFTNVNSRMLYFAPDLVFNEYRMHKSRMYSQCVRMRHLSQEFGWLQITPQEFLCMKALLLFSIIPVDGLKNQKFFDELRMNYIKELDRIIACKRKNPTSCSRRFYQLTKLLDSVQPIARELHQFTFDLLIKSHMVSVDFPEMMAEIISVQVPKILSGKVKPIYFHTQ
Description: (§1) HepG2 cells were maintained in EMEM supplemented with 10% FBS. One day before transfection, the media was changed to EMEM with 10% CSS. […] Cells were then trypsinized, counted and resuspended at 500,000 cells/mL. For agonist mode, the compounds were serially diluted and 50 μL of the compound was added per well. 50 μL of the cells were added to each well and incubated for 48 hours. For antagonist mode, a final concentration of 90 pM (VP16 AR) or 1 nM (VP16 F876L) R1881 was added to the plate and incubated for 48 hours. The plates were then assayed using SteadyGlo and read on the Envision. Percent Stimulation and Inhibition were determined and analyzed using GraphPad Prism.

F876L-VP16 = biological target: T2, F876L-VP16 (Homo sapiens, UniProt P10275, F877L); assay: AR-VP16 DNA binding assay, HepG2; assay type: cell-based; conditions: HepG2, antagonist mode, 1 nM R1881, 48 hours
T2 construct: VP16 (fusion partner); expressed in transfected cells; host or cells: HepG2
T2 sequence (P10275 1-920 F877L): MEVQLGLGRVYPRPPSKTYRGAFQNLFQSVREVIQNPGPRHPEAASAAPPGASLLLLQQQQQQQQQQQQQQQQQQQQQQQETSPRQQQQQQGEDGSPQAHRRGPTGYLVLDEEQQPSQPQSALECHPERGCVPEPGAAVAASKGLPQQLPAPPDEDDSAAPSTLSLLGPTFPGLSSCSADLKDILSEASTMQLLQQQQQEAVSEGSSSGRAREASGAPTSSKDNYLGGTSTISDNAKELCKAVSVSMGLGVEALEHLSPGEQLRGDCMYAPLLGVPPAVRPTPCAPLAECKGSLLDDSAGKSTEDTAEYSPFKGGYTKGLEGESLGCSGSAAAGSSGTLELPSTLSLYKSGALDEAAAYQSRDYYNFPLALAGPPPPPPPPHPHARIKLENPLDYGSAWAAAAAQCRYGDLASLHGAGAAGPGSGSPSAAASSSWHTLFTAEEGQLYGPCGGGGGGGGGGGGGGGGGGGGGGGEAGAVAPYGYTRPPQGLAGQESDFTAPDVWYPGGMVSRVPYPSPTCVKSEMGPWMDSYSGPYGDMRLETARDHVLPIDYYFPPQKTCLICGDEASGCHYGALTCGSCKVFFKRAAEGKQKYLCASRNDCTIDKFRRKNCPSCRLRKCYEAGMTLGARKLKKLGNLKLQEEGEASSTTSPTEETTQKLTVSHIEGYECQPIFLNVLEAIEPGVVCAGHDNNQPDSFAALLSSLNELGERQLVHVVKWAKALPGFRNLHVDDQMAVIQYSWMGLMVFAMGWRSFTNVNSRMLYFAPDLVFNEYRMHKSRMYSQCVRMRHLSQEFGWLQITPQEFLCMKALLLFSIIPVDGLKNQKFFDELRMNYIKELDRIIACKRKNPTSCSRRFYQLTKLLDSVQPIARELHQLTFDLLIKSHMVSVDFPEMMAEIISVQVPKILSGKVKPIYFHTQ
Description: as §1

[1] = biological target: T3, F876L mutant Androgen Receptor (AR-F876L) (Homo sapiens, UniProt P10275, F877L); assay: LNCaP-AR-F876L ANT reporter assay (ARE firefly luciferase, antagonist mode); assay type: cell-based; conditions: for Emax: read-out: LNCaP-AR-F876L ANT MAX % Inh; for IC50: read-out: LNCaP-AR-F876L ANT pIC50 (converted)
T3 construct: expressed in transfected cells; host or cells: LNCaP (LNCaP F876L)
T3 sequence (P10275 1-920 F877L): T2 sequence (P10275 1-920 F877L)
Outline: (§2)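 Read-out is luciferase luminescence taken 1 h after Steady-Glo addition, following 20-24 h compound exposure at 37 °C in LNCaP pools stably carrying wild-type or F876L AR. Cells were grown in charcoal-stripped serum. Antagonist wells received agonist at 400 pM (WT) or 600 pM (F876L).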

[2] = biological target: T4, wild-type Androgen Receptor (AR-wt) (Homo sapiens, UniProt P10275); assay: LNCaP-AR-wt ANT reporter assay (ARE firefly luciferase, antagonist mode); assay type: cell-based; conditions: for IC50: antagonist mode, 400 pM R-1881 challenge, −Log10(IC50 [Molar]), read-out: LNCaP-AR-wt ANT pIC50 (converted); for Emax: read-out: LNCaP-AR-wt ANT MAX % Inh
T4 construct: expressed in transfected cells; host or cells: LNCaP (LNCaP AR (cs))
T4 sequence (P10275 1-920): T2 sequence (P10275 1-920 F877L) with L877F
Outline: as §2

[3] = biological target: T3, F876L mutant Androgen Receptor (AR-F876L); assay: LNCaP-AR-F876L AG reporter assay (ARE firefly luciferase, agonist mode); assay type: cell-based; conditions: for Emax: read-out: LNCaP-AR-F876L AG MAX % Stim
Outline: (§3)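 LNCaP stable pooled lines expressing ARE-firefly luciferase, in charcoal-stripped serum medium, were exposed to compounds; antagonist mode used agonist at 400 pM (WT) or 600 pM (F876L).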

[4] = biological target: T4, wild-type Androgen Receptor (AR-wt); assay: LNCaP-AR-wt AG reporter assay (ARE firefly luciferase, agonist mode); assay type: cell-based; conditions: for Emax: read-out: LNCaP-AR-wt AG MAX % Stim
Outline: as §3

[5] = test system: androgen dependent signaling; assay: Hershberger assay; assay type: in vivo, rat
Description: The effect of AR antagonists on androgen dependent signaling in vivo was assessed using the Hershberger assay. In this assay, peripubertal castrated male Sprague-Dawley rats were administered AR antagonists described herein in the presence of testosterone (0.4 mg/kg testosterone propionate) and the weights of androgen dependent organs measured. Dosing was continued for 10 days and measurements taken 24 h after the last dose. The extent of antagonism of AR and consequent inhibition of organ growth was evaluated by comparison to the castration control. Compounds of Formula (I) were dosed orally QD and an endpoint assessment made by change in weight of 5 androgen sensitive organs (ASO): Paired Cowper's Glands (CG), Seminal Vesicles with Fluids and Coagulating Glands (SVCG), Glans Penis (GP), Ventral Prostate (VP) and Levator Ani-Bulbocavernosus Complex (LABC)). According to assay guidelines, statistically significant suppression of ASO is required in 2 of 5 organs for a compound to be classified as an anti-androgen (analysis was performed by t-test/Mann-Whitney).
Compounds defined herein were administered at the indicated dose (mg/kg) and flutamide (FT), positive control, at 3 mg/kg. All compounds were co-administered with testosterone propionate (TP, 0.4 mg/kg) which was also administered alone, untreated control, (castrated only rats served as the control for complete androgen blockade). A statistically significant change in ASO achieved in at least 2 of 5 organs was indicative of an active compound.

[6] = maximum % inhibition of R1881 control response over tested concentration range
[7] = agonist mode, −Log10(EC50 [Molar]), read-out: LNCaP-AR-F876L AG pEC50 (converted)
[8] = maximum % stimulation (agonist response) over tested concentration range
[9] = agonist mode, −Log10(EC50 [Molar]), read-out: LNCaP-AR-wt AG pEC50 (converted)
[10] = 3 mg/kg orally QD 10 days with testosterone propionate 0.4 mg/kg, castrated rats, mean ± SD (n=6)

Row | SMILES | IC50 (AR-VP16) [nM] | IC50 (F876L-VP16) [nM] | Emax [1, 6] [%] | IC50 [1] [nM] | IC50 [2] [nM] | Emax [2, 6] [%] | EC50 [3, 7] [nM] | Emax [3, 8] [%] | EC50 [4, 9] [nM] | Emax [4, 8] [%] | Emax [1] [%] | Emax [2] [%] | EC50 [3] [nM] | Emax [3] [%] | EC50 [4] [nM] | Emax [4] [%] | reduction in ASO versus TP control ([5]; all 5 organs, p≦0.05) | ASO Organ Growth (% of TP control) SVCG [5, 10] | ASO Organ Growth (% of TP control) VP [5, 10]
1 | Cc1cc(N2C(=O)C3(CCC3)N(c3ccc(OC4CCN(CCO)CC4)cc3)C2=S)cnc1C#N [Cpd 60, 5-[8-[4-[[1-(2-hydroxyethyl)-4-piperidyl]oxy]phenyl]-5-oxo-7-thioxo-6,8-diazaspiro[3.4]octan-6-yl]-3-methyl-pyridine-2-carbonitrile] | 2050 | 746 | 99.3 | 525 | 933 | 98.7 | > 15100 | 0.7 | > 15100 | 1.1 |  |  |  |  |  |  |  |  | 
2 | CN1CCN(CCCc2ccc(N3C(=S)N(c4cnc(C#N)c(C(F)(F)F)c4)C(=O)C34CCC4)cc2)CC1 [Cpd 43, 5-[8-[4-[3-(4-methylpiperazin-1-yl)propyl]phenyl]-5-oxo-7-thioxo-6,8-diazaspiro[3.4]octan-6-yl]-3-(trifluoromethyl)pyridine-2-carbonitrile] |  |  |  | 245 | 501 |  |  |  |  |  | 98.9 | 97.3 | > 15100 | 0.4 | > 15100 | 0.7 | significant reduction in ASO |  | 
3 | CC(C)C(=O)Nc1ccc([N+](=O)[O-])c(C(F)(F)F)c1 [Flutamide, flutamide, reference compound] |  |  |  |  |  |  |  |  |  |  |  |  |  |  |  |  |  | 22.5 ± 22.9 % of TP control and 16.6 ± 16.3 % of TP control | 31.1 ± 29.2 % of TP control and 24.4 ± 35.5 % of TP control
4 | N#Cc1ncc(N2C(=O)C3(CCC3)N(c3ccc(C(=O)NCc4ccccn4)c(F)c3)C2=S)cc1C(F)(F)F [Cpd 44, 4-[6-[6-cyano-5-(trifluoromethyl)-3-pyridyl]-5-oxo-7-thioxo-6,8-diazaspiro[3.4]octan-8-yl]-2-fluoro-N-(2-pyridylmethyl)benzamide] |  |  |  | 178 | 195 |  |  |  |  |  | 101 | 103 | > 15100 | 0 | > 15100 | -0.2 |  |  | 
5 | N#Cc1ncc(N2C(=O)C3(CCC3)N(c3ccc(OCCN4CCCC4)c(F)c3)C2=S)cc1C(F)(F)F [Cpd 66, 5-[8-[3-fluoro-4-(2-pyrrolidin-1-ylethoxy)phenyl]-5-oxo-7-thioxo-6,8-diazaspiro[3.4]octan-6-yl]-3-(trifluoromethyl)pyridine-2-carbonitrile] |  |  | 96.2 | 603 | 1150 | 98.9 | > 15100 | 0.1 | > 15100 | 0.6 |  |  |  |  |  |  |  |  | 
